Source: US9023789B2, “Amylin analogs and pharmaceutical compositions thereof” (Novo Nordisk A/S, priority 2012, dated 2015)
pIC50: −log10 of the molar value. ≈ marks a conversion by molar mass, not a printed value. Where two headings read alike, the source gives them in different places. Numbered stars: 1 amine (or outer) side, 2 acyl side, 3 side chain; on linkers, the order of the positions; unused ones are H or OH. Bridge positions count the residues as written; N and C are the ends. Side chains are listed from the residue outwards. Peptide text beside a SMILES is read from it. * marks the point of attachment. C20 diacid = O=C(O)CCCCCCCCCCCCCCCCCCC(=O)*; γGlu = O=C(O)[C@H](CCC(=O)[*:2])N[*:1]; AEEA = NCCOCCOCC(=O)O

What was measured:
[1] = ASSAY (IV) determination of solubility; assay type: physicochemical
Outline: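 UPLC read-out of polypeptide concentration after centrifugation. Samples: aqueous polypeptide stock ([…]) + 100 mM buffer 1:1, glycylglycine pH 3.0–5.0 or bistrispropane pH 6.0–8.0; 18 h, RT.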

rat calcitonin receptor = biological target: T1, rat calcitonin receptor (Rattus norvegicus, UniProt P32214); assay: ASSAY (VIII) binding to the rat calcitonin receptor; details: Table 7, read-out: rCTR bind IC50
T1 construct: expressed in transfected cells; host or cells: BHK tk'ts 13 (transient, FuGENE 6), membranes
T1 sequence (P32214 25-479 isoform P32214-2 limits assumed): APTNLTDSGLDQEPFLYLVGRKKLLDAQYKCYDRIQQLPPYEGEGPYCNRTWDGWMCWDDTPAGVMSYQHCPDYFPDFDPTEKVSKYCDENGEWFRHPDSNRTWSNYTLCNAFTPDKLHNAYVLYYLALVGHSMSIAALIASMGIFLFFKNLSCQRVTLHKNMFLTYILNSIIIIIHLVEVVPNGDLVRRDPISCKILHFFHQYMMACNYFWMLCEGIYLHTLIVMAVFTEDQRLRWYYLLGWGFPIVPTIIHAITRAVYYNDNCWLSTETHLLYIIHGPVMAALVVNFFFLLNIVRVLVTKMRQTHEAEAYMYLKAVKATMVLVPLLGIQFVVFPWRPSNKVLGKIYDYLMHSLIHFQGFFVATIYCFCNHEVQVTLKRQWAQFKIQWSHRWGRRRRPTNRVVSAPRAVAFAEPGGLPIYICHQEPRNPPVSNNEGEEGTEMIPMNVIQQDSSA
Outline: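 Receptor source: membranes from transiently transfected BHK tk′ts 13 cells expressing rat calcitonin receptor, collected roughly 48 hours after transfection.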

[2] = biological target: T2, rat amylin receptor (rat calcitonin receptor + rat RAMP 3) (Rattus norvegicus, UniProt P32214+Q9JJ73); assay: ASSAY (VI) binding to the rat amylin receptor; details: for pIC50: binding to rat amylin receptor, read-out: rAmylin-R bind IC50
T2 construct: expressed in transfected cells; host or cells: BHK tk'ts 13 (transient, FuGENE 6), membranes
T2 sequence (P32214 25-479 isoform P32214-2 limits assumed): T1 sequence (P32214 25-479 isoform P32214-2 limits assumed)
T2 sequence (Q9JJ73 23-147 partner): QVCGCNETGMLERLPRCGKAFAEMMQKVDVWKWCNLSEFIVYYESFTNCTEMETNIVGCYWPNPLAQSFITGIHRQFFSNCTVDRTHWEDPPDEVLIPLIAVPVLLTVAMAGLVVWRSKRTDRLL
Outline: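 The cell-membrane assay assessed binding at the rat amylin receptor. BHK tk′ts 13 cells were transfected transiently with rat calcitonin receptor, with FuGENE® 6 (Roche) as the transfection reagent, used per the manufacturer's recommendations. Approximately 48 hours after transfection the cells were harvested, and membranes were prepared for measuring binding.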

[3] = biological target: T3, human amylin receptor (membranes from Amylin 3(a)/CRE-luc cells) (Homo sapiens, UniProt O60896+P30988); assay: ASSAY (V) binding to the human amylin receptor (SPA, 125I-rat amylin); details: for pIC50: Table 4, read-out: hAmylin-R bind IC50;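 for all read-outs here: competition binding of cell membranes (35 ng/µL) mixed with SPA beads in 384-well plates at 40 µL total volume, read by scintillation counting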
T3 construct: expressed in transfected cells
T3 sequence (P30988 25-474): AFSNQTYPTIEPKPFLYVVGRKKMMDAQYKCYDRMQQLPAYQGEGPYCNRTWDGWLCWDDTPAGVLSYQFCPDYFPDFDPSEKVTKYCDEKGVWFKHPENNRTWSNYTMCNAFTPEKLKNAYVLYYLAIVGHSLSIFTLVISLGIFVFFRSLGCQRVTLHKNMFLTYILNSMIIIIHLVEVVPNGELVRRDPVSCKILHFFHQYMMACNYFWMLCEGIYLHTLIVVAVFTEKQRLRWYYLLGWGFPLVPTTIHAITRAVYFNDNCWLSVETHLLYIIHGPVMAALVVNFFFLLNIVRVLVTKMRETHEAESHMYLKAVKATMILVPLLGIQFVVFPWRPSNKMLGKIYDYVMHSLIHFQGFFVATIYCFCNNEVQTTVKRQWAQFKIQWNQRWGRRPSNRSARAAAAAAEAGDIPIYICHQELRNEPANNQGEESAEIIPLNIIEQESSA
T3 sequence (O60896 24-148 partner): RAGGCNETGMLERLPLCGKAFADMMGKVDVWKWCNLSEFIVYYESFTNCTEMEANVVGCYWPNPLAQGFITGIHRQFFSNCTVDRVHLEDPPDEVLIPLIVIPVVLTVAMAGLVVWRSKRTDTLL

[4] = bistrispropane buffer, pH 6.5, read-out: Solubility pH 6.5 Concentration
[5] = bistrispropane buffer, pH 7.5, read-out: Solubility pH 7.5 Concentration
[6] = bistrispropane buffer, pH 6.0, read-out: Solubility pH 6.0 Concentration
[7] = bistrispropane buffer, pH 7.0, read-out: Solubility pH 7.0 Concentration
[8] = bistrispropane buffer, pH 8.0, read-out: Solubility pH 8.0 Concentration
[9] = glycylglycine buffer, pH 3.0, read-out: Solubility pH 3.0 Concentration
[10] = glycylglycine buffer, pH 4.0, read-out: Solubility pH 4.0 Concentration
[11] = glycylglycine buffer, pH 5.0, read-out: Solubility pH 5.0 Concentration
[12] = Table 7, rat binding selectivity, rCTR IC50 / rAmylin-R IC50
[13] = Table 7a (preferred compounds), rat binding selectivity, rCTR IC50 / rAmylin-R IC50
[14] = ratio of rCTR bind IC50 to rAmylin-R bind IC50
[15] = Table 5, selectivity, hCTR bind IC50 / hAmylin-R bind IC50
[16] = Table 5a, selectivity, hCTR bind IC50 / hAmylin-R bind IC50
[17] = Table 5b, selectivity, hCTR bind IC50 / hAmylin-R bind IC50
[18] = Table 5c, selectivity, hCTR bind IC50 / hAmylin-R bind IC50
[19] = Table 7, human binding selectivity, included for comparison
[20] = Table 7a (preferred compounds), human binding selectivity, included for comparison
[21] = ratio of human calcitonin receptor binding IC50 to human amylin receptor binding IC50

| Structure (SMILES) | solubility at 18 h [1, 4] [µM] | solubility at 18 h [1, 5] [µM] | solubility at 18 h [1, 6] [µM] | solubility at 18 h [1, 7] [µM] | solubility at 18 h [1, 8] [µM] | solubility at 18 h [1, 9] [µM] | solubility at 18 h [1, 10] [µM] | solubility at 18 h [1, 11] [µM] | pIC50 (rat calcitonin receptor) | pIC50 ([2]; Table 7) | Ratio rCT/rAmylin binding [2, 12] | Ratio rCT/rAmylin binding [2, 13] | Ratio rCT/rAmylin binding [2, 14] | Ratio hCT/hAmylin binding [3, 15] | Ratio hCT/hAmylin binding [3, 16] | Ratio hCT/hAmylin binding [3, 17] | Ratio hCT/hAmylin binding [3, 18] | Ratio hCT/hAmylin binding [3, 19] | Ratio hCT/hAmylin binding [3, 20] | Ratio hCT/hAmylin binding [3, 21] | further results |
| --- | --- | --- | --- | --- | --- | --- | --- | --- | --- | --- | --- | --- | --- | --- | --- | --- | --- | --- | --- | --- | --- |
| CC[C@H](C)[C@H](NC(=O)[C@H](C)NC(=O)CNC(=O)[C@H](Cc1ccccc1)NC(=O)[C@H](CC(N)=O)NC(=O)[C@@H]1CCCN1C(=O)[C@H](CO)NC(=O)[C@H](CO)NC(=O)[C@H](Cc1c[nH]cn1)NC(=O)[C@H](CCCNC(=N)N)NC(=O)[C@H](CC(C)C)NC(=O)[C@H](Cc1ccccc1)NC(=O)[C@H](CCCNC(=N)N)NC(=O)[C@H](C)NC(=O)[C@H](CC(C)C)NC(=O)[C@H](CCCNC(=N)N)NC(=O)[C@H](CCC(N)=O)NC(=O)[C@@H](NC(=O)[C@H](C)NC(=O)[C@@H]1CSSC[C@H](NC(=O)[C@@H](N)CCCCNC(=O)CC[C@H](NC(=O)CCCCCCCCCCCCCCCCCCC(=O)O)C(=O)O)C(=O)N[C@@H](CC(N)=O)C(=O)N[C@@H]([C@@H](C)O)C(=O)N[C@@H](C)C(=O)N[C@@H]([C@@H](C)O)C(=O)N1)[C@@H](C)O)C(=O)N1CCC[C@H]1C(=O)N[C@@H](CO)C(=O)N[C@@H](CO)C(=O)N[C@H](C(=O)N1CCC[C@H]1C(=O)N[C@H](C(=O)NCC(=O)N[C@@H](CO)C(=O)N[C@@H](CC(N)=O)C(=O)N[C@H](C(=O)N[C@@H](Cc1ccc(O)cc1)C(N)=O)[C@@H](C)O)C(C)C)[C@@H](C)O [Example 63] (H-K([γGlu-C20 diacid])CNTATCATQRLARFLRHSSPNFGAIPSSTPVGSNTY-NH2; disulfide 2-7 (inferred); N-terminus assumed) | ≥ 200 | ≥ 200 | ≥ 200 | ≥ 200 | ≥ 200 | ≥ 200 | ≥ 200 | ≥ 200 | 6.91 | 8.46 | 35.6 | 35.6 | 35.6 | 157.1 | 157.1 | 157.1 | 157.1 | 157.1 | 157.1 | 157.1 |  |
| CC[C@H](C)[C@H](NC(=O)[C@H](C)NC(=O)CNC(=O)[C@H](Cc1ccccc1)NC(=O)[C@H](CC(N)=O)NC(=O)[C@@H]1CCCN1C(=O)[C@H](CO)NC(=O)[C@H](CO)NC(=O)[C@H](Cc1c[nH]cn1)NC(=O)[C@H](CCCNC(=N)N)NC(=O)[C@H](CC(C)C)NC(=O)[C@H](Cc1ccccc1)NC(=O)[C@H](Cc1c[nH]cn1)NC(=O)[C@H](C)NC(=O)[C@H](CC(C)C)NC(=O)[C@H](CCCNC(=N)N)NC(=O)[C@H](CCC(N)=O)NC(=O)[C@@H](NC(=O)[C@H](C)NC(=O)[C@@H]1CSSC[C@H](NC(=O)[C@@H](N)CCCCNC(=O)CC[C@H](NC(=O)CCCCCCCCCCCCCCCCCCC(=O)O)C(=O)O)C(=O)N[C@@H](CC(N)=O)C(=O)N[C@@H]([C@@H](C)O)C(=O)N[C@@H](C)C(=O)N[C@@H]([C@@H](C)O)C(=O)N1)[C@@H](C)O)C(=O)N1CCC[C@H]1C(=O)N[C@@H](CO)C(=O)N[C@@H](CO)C(=O)N[C@H](C(=O)N[C@@H](CC(N)=O)C(=O)N[C@H](C(=O)NCC(=O)N[C@@H](CO)C(=O)N[C@@H](Cc1c[nH]cn1)C(=O)N[C@H](C(=O)N[C@@H](Cc1ccc(O)cc1)C(N)=O)[C@@H](C)O)C(C)C)[C@@H](C)O [Example 66] (H-K([γGlu-C20 diacid])CNTATCATQRLAHFLRHSSPNFGAIPSSTNVGSHTY-NH2; disulfide 2-7; N-terminus assumed) | ≥ 200 | 131 (≈ 580 µg/mL) | ≥ 200 | ≥ 200 | 52 (≈ 230 µg/mL) | ≥ 200 | ≥ 200 | ≥ 200 | 7.68 | 9.24 | 35.8 | 35.8 | 35.8 | 45.5 | 45.5 | 45.5 | 45.5 | 45.5 | 45.5 | 45.5 | Solubility pH 6.5 Concentration ([1]; pH 6.5 (Table 9a)): ≧200 μM; Solubility pH 7.0 Concentration ([1]; pH 7.0 (Table 9a)): ≧200 μM; pIC50 [3]: 9.40 |
| CC[C@H](C)[C@H](NC(=O)[C@H](C)NC(=O)CNC(=O)[C@H](Cc1ccccc1)NC(=O)[C@H](CC(N)=O)NC(=O)[C@@H]1CCCN1C(=O)[C@H](CO)NC(=O)[C@H](CO)NC(=O)[C@H](Cc1c[nH]cn1)NC(=O)[C@H](CCCNC(=N)N)NC(=O)[C@H](CC(C)C)NC(=O)[C@H](Cc1ccccc1)NC(=O)[C@H](Cc1c[nH]cn1)NC(=O)[C@H](C)NC(=O)[C@H](CC(C)C)NC(=O)[C@H](CCCNC(=N)N)NC(=O)[C@H](CCC(N)=O)NC(=O)[C@@H](NC(=O)[C@H](C)NC(=O)[C@@H]1CSSC[C@H](NC(=O)[C@@H](N)CCCCNC(=O)COCCOCCNC(=O)CC[C@H](NC(=O)CCCCCCCCCCCCCCCCCCC(=O)O)C(=O)O)C(=O)N[C@@H](CC(N)=O)C(=O)N[C@@H]([C@@H](C)O)C(=O)N[C@@H](C)C(=O)N[C@@H]([C@@H](C)O)C(=O)N1)[C@@H](C)O)C(=O)N1CCC[C@H]1C(=O)N[C@@H](CO)C(=O)N[C@@H](CO)C(=O)N[C@H](C(=O)N[C@@H](CC(N)=O)C(=O)N[C@H](C(=O)NCC(=O)N[C@@H](CO)C(=O)N[C@@H](CC(N)=O)C(=O)N[C@H](C(=O)N[C@@H](Cc1ccc(O)cc1)C(N)=O)[C@@H](C)O)C(C)C)[C@@H](C)O [Example 69] (H-K([AEEA-γGlu-C20 diacid])CNTATCATQRLAHFLRHSSPNFGAIPSSTNVGSNTY-NH2; disulfide 2-7; N-terminus assumed) | ≥ 200 | ≥ 200 | ≥ 200 | ≥ 200 | ≥ 200 | ≥ 200 | ≥ 200 | ≥ 200 | 7.33 | 9.35 | 104.0 | 104.0 | 104.0 | 65.3 | 65.3 | 65.3 | 65.3 | 65.3 | 65.3 | 65.3 | pIC50 [3]: 9.88 |
